Patent publication US20100298141A1, “SUBSTITUTED PYRIDINE N-OXIDE HERBICIDES” (E. I. DU PONT DE NEMOURS AND COMPANY, priority 2007, published 2010)

Assays:
barnyardgrass [1] = assay: Test A pre-/postemergence greenhouse test; type: in vivo, Echinochloa crus-galli; conditions: for Plant response rating, Barnyardgrass: 0 to 100 scale where 0 is no effect and 100 is complete control; for Barnyardgrass plant response rating: 0 to 100 scale
Procedure, shortened: (§1)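 Herbicidal effect is a visual injury score given about ten days post-treatment by comparison with untreated controls. Preemergence plots received a directed spray onto sown loam–sand soil; postemergence plants, at the one- to two-leaf stage and 2–10 cm tall, were sprayed at the same time.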

crabgrass = assay: Test A pre-/postemergence greenhouse test; type: in vivo, Digitaria sanguinalis; conditions: for Plant response rating, Crabgrass, Large: 0 to 100 scale where 0 is no effect and 100 is complete control; for Crabgrass, Large plant response rating: 0 to 100 scale
Procedure, shortened: as §1

giant foxtail = assay: Test A pre-/postemergence greenhouse test; type: in vivo, Setaria faberi; conditions: for Plant response rating, Foxtail, Giant: 0 to 100 scale where 0 is no effect and 100 is complete control; for Foxtail, Giant plant response rating: 0 to 100 scale
Procedure, shortened: as §1

morningglory = assay: Test A pre-/postemergence greenhouse test; type: in vivo, Ipomoea spp.; conditions: for Plant response rating, Morningglory: 0 to 100 scale where 0 is no effect and 100 is complete control; for Morningglory plant response rating: 0 to 100 scale
Procedure, shortened: as §1

redroot pigweed = assay: Test A pre-/postemergence greenhouse test; type: in vivo, Amaranthus retroflexus; conditions: for Plant response rating, Pigweed: 0 to 100 scale where 0 is no effect and 100 is complete control; for Pigweed plant response rating: 0 to 100 scale
Procedure, shortened: as §1

velvetleaf = assay: Test A pre-/postemergence greenhouse test; type: in vivo, Abutilon theophrasti; conditions: for Plant response rating, Velvetleaf: 0 to 100 scale where 0 is no effect and 100 is complete control; for Velvetleaf plant response rating: 0 to 100 scale
Procedure, shortened: as §1

wheat = assay: Test A pre-/postemergence greenhouse test; type: in vivo, Triticum aestivum; conditions: for Plant response rating, Wheat: 0 to 100 scale where 0 is no effect and 100 is complete control; for Wheat plant response rating: 0 to 100 scale
Procedure, shortened: as §1

corn = assay: Test A pre-/postemergence greenhouse test; type: in vivo, Zea mays; conditions: for Plant response rating, Corn: 0 to 100 scale where 0 is no effect and 100 is complete control; for Corn plant response rating: 0 to 100 scale
Procedure, shortened: as §1

rice = assay: Test C flooded paddy test; type: in vivo, Oryza sativa; conditions: Flood
From the text: (§2) At time of treatment, test pots were flooded to 3 cm above the soil surface, treated by application of test compounds directly to the paddy water, and then maintained at that water depth for the duration of the test. Treated plants and controls were maintained in a greenhouse for 13 to 15 days, after which time all species were compared to controls and visually evaluated. […] A dash (-) response means no test result.

umbrella sedge = assay: Test C flooded paddy test; type: in vivo, Cyperus difformis; conditions: Flood
From the text: as §2

duck salad = assay: Test C flooded paddy test; type: in vivo, Heteranthera limosa; conditions: Flood
From the text: as §2

barnyardgrass [2] = assay: Test C flooded paddy test; type: in vivo, Echinochloa crus-galli; conditions: Flood
From the text: as §2

[3] = Postemergence, 500 g ai/ha, 0 is no effect, 100 is complete control
[4] = Preemergence, 125 g ai/ha, 0 no effect, 100 complete control
[5] = 62 g ai/ha, scale 0 to 100 (0 no effect, 100 complete control)
[6] = 250 g ai/ha, scale 0 to 100, 0 no effect, 100 complete control, 13 to 15 days
[7] = Postemergence, 125 g ai/ha, 0 is no effect, 100 is complete control
[8] = 31 g ai/ha, scale 0 to 100 (0 no effect, 100 complete control)
[9] = 62 g ai/ha, scale 0 to 100, 0 no effect, 100 complete control, 13 to 15 days
[10] = 125 g ai/ha, scale 0 to 100, 0 no effect, 100 complete control, 13 to 15 days
[11] = 250 g ai/ha, scale 0 to 100 (0 no effect, 100 complete control)

Cn1nc(C(F)(F)F)c(CS(=O)(=O)c2cccc[n+]2[O-])c1OCC(F)(F)C(F)(F)F [Compound 83]
80: Barnyardgrass plant response rating (barnyardgrass [1]; [4]) | Crabgrass, Large plant response rating (crabgrass; [3]) | Plant response rating, Crabgrass, Large (crabgrass; Preemergence, 500 g ai/ha) | Foxtail, Giant plant response rating (giant foxtail; [3]) | Foxtail, Giant plant response rating (giant foxtail; [4])
0: Morningglory plant response rating (morningglory; [4]) | Plant response rating, Velvetleaf (velvetleaf; Postemergence, 125 g ai/ha) | Velvetleaf plant response rating (velvetleaf; [4]) | Plant response rating, Wheat (wheat; Postemergence, 125 g ai/ha) | Plant response rating, Corn (corn; Postemergence, 125 g ai/ha) | Corn plant response rating (corn; [3]) | Corn plant response rating (corn; [4]) | Plant response rating, Sedge, Umbrella (umbrella sedge; [5]) | Plant response rating, Sedge, Umbrella (umbrella sedge; [6]) | Plant response rating, Ducksalad (duck salad; [5]) | Plant response rating, Ducksalad (duck salad; [6]) | Plant response rating, Barnyardgrass (barnyardgrass [2]; [5]) | Plant response rating, Barnyardgrass (barnyardgrass [2]; [6])
100: Plant response rating, Barnyardgrass (barnyardgrass [1]; Preemergence, 500 g ai/ha) | Plant response rating, Foxtail, Giant (giant foxtail; Preemergence, 500 g ai/ha) | Plant response rating, Pigweed (redroot pigweed; Preemergence, 500 g ai/ha)
10: Plant response rating, Morningglory (morningglory; Postemergence, 125 g ai/ha) | Plant response rating, Pigweed (redroot pigweed; Postemergence, 125 g ai/ha) | Pigweed plant response rating (redroot pigweed; [4]) | Wheat plant response rating (wheat; [3]) | Wheat plant response rating (wheat; [4])
70: Barnyardgrass plant response rating (barnyardgrass [1]; [3]) | Plant response rating, Foxtail, Giant (giant foxtail; Postemergence, 125 g ai/ha) | Plant response rating, Morningglory (morningglory; Preemergence, 500 g ai/ha)
30: Plant response rating, Crabgrass, Large (crabgrass; Postemergence, 125 g ai/ha) | Morningglory plant response rating (morningglory; [3])
50: Plant response rating, Barnyardgrass (barnyardgrass [1]; Postemergence, 125 g ai/ha) | Crabgrass, Large plant response rating (crabgrass; [4])
20: Pigweed plant response rating (redroot pigweed; [3]) | Plant response rating, Rice (rice; [5]) | Plant response rating, Rice (rice; [6])
60: Plant response rating, Velvetleaf (velvetleaf; Preemergence, 500 g ai/ha) | Plant response rating, Wheat (wheat; Preemergence, 500 g ai/ha)
40: Velvetleaf plant response rating (velvetleaf; [3]) | Plant response rating, Corn (corn; Preemergence, 500 g ai/ha)

CC(c1c(C(F)(F)F)nn(C)c1OC(F)F)S(=O)(=O)c1ccc(Br)c[n+]1[O-] (racemic) [Compound 23]
55: Plant response rating, Sedge, Umbrella (umbrella sedge; [9])
60: Crabgrass, Large plant response rating (crabgrass; [4]) | Plant response rating, Ducksalad (duck salad; [9]) | Plant response rating, Barnyardgrass (barnyardgrass [2]; [10])
75: Plant response rating, Sedge, Umbrella (umbrella sedge; [10]) | Plant response rating, Sedge, Umbrella (umbrella sedge; [6])
45: Plant response rating, Barnyardgrass (barnyardgrass [2]; [9])
80: Plant response rating, Foxtail, Giant (giant foxtail; Preemergence, 500 g ai/ha) | Plant response rating, Ducksalad (duck salad; [11])
40: Barnyardgrass plant response rating (barnyardgrass [1]; [4]) | Crabgrass, Large plant response rating (crabgrass; [7]) | Foxtail, Giant plant response rating (giant foxtail; [3])
100: Pigweed plant response rating (redroot pigweed; [4]) | Plant response rating, Pigweed (redroot pigweed; Preemergence, 500 g ai/ha)
30: Foxtail, Giant plant response rating (giant foxtail; [4])
90: Plant response rating, Barnyardgrass (barnyardgrass [1]; Preemergence, 500 g ai/ha) | Plant response rating, Crabgrass, Large (crabgrass; Preemergence, 500 g ai/ha)
70: Plant response rating, Rice (rice; [9]) | Plant response rating, Rice (rice; [10]) | Plant response rating, Rice (rice; [11]) | Plant response rating, Ducksalad (duck salad; [10]) | Plant response rating, Barnyardgrass (barnyardgrass [2]; [11])
50: Crabgrass, Large plant response rating (crabgrass; [3]) | Pigweed plant response rating (redroot pigweed; [3])
0: Barnyardgrass plant response rating (barnyardgrass [1]; [7]) | Barnyardgrass plant response rating (barnyardgrass [1]; [3]) | Foxtail, Giant plant response rating (giant foxtail; [7]) | Morningglory plant response rating (morningglory; [7]) | Morningglory plant response rating (morningglory; [3]) | Morningglory plant response rating (morningglory; [4]) | Plant response rating, Morningglory (morningglory; Preemergence, 500 g ai/ha) | Pigweed plant response rating (redroot pigweed; [7]) | Velvetleaf plant response rating (velvetleaf; [7]) | Velvetleaf plant response rating (velvetleaf; [3]) | Velvetleaf plant response rating (velvetleaf; [4]) | Plant response rating, Velvetleaf (velvetleaf; Preemergence, 500 g ai/ha) | Wheat plant response rating (wheat; [7]) | Wheat plant response rating (wheat; [3]) | Wheat plant response rating (wheat; [4]) | Plant response rating, Wheat (wheat; Preemergence, 500 g ai/ha) | Corn plant response rating (corn; [7]) | Corn plant response rating (corn; [3]) | Corn plant response rating (corn; [4]) | Plant response rating, Corn (corn; Preemergence, 500 g ai/ha) | Plant response rating, Rice (rice; [8]) | Plant response rating, Sedge, Umbrella (umbrella sedge; [8]) | Plant response rating, Ducksalad (duck salad; [8]) | Plant response rating, Barnyardgrass (barnyardgrass [2]; [8])
